Laboratory results as given in patent US20220080015A1, “METHOD OF PREVENTING AND TREATING NEURODEGENERATIVE DISORDERS USING SOPHORA JAPONICA L. EXTRACT AS ACTIVE INGREDIENT” (UNIVERSITY-INDUSTRY COOPERATION GROUP OF KYUNG HEE …, priority 2016, published 2022).

Test system: Alzheimer's disease-induced mouse model (amyloid beta1-42 peptide-infused mouse model)
Test: Morris water maze test (memory test)
Assay type: in vivo, C57BL/6 mouse
Conditions: Aβ-infused mice + donepezil 1 mg/kg (positive control); platform removed, 60 seconds free swimming; average ± S.E.M.
Procedure: Specifically, the following experiment was carried out by applying a conventional Morris method. First, a mouse was transferred to a behavior observation chamber and stabilized one hour before the initiation of the experiment. The maze dimension includes a diameter of 90 cm and a height of 32.5 cm, and the diameter of a white platform is 5 cm. In the periphery of the underwater maze, spatial cues such as a computer system connected with a video camera and a device for controlling a water temperature were always regularly maintained. Afterward, the maze was filled with water so that the platform is installed 1 cm below the water level, such that a mouse cannot see the platform. The maze was divided into quadrants using four markers, the quadrants were classified as northeast (NE), northwest (NW), southeast (SE), and southwest (SW), and the platform was installed in one quadrant of the maze. […] On the sixth day, the platform was removed from the maze, and then the residence time of a mouse in the quadrant in which the platform was placed was measured. On the final day […] of the Morris water maze test, to perform a memory test, the platform was removed, free swimming was allowed for 60 seconds, and the residence time of a mouse in the quadrant in which the platform was placed was measured in percentage using a Smart program.

SMILES: COc1cc2c(cc1OC)C(=O)C(CC1CCN(Cc3ccccc3)CC1)C2 (stereo not shown) [donepezil]
- Residence time in quadrant (%): 59.222±2.918%
